Measurements from publication PMC9532951, “Identification and characterization of a novel SNAT2 (SLC38A2) inhibitor reveals synergy with glucose transport inhibition in cancer cells” (Frontiers in Pharmacology, 2022).
Values joined by “and” are separate entries in the source; they are usually repeats but may differ in a detail not shown here. Equal entries are not always repeated.

How the values were obtained:
[1] = system: SNAT1 and SNAT2; test: FMP assay: inhibition of glutamine-induced membrane depolarisation in amino acid depleted HCC1806 cells; format: cell-based, human
Method: The FLIPR Membrane Potential Blue Explorer Kit (Molecular Devices) was used to characterise inhibitors and to optimise a high-throughput compound screen. Cells were seeded at approximately 60,000 cells/well on a 96-well plate and allowed to attach and grow overnight in a cell incubator. […] Cells were then washed once with mHBSS and incubated with 50 µl of the mHBSS-resuspended FMP assay dye and 50 µl of mHBSS (with or without inhibitors) and incubated at room temperature for 30 min. The plate was then placed in an EnSpire Multimode plate reader (PerkinElmer) and four sequential measurements of fluorescence were recorded as a baseline reference. Immediately after the baseline measurements were taken, 25 µl of 5 mM glutamine dissolved in mHBSS was injected into each well and the plate was shaken orbitally for 5 s before a series of consecutive fluorescence measurements were taken. The excitation wavelength was set to 530 nm and the emission was detected at 565 nm. The Δ fluorescent signal reported in the figures was taken 30 s after substrate addition. After the assay was complete, the liquid content of the plate was carefully removed, and the cell monolayer inspected to ensure it remained intact throughout the course of the assay.
IC50 were calculated using equation y=ymax(1−x/x+IC50)

[2] = system: SNAT1 and SNAT2; test: FMP assay in HCC1806 clones C10 (ASCT2ko) and D126 (ASCT2ko, SNAT2ko); format: cell-based, human; details: MeAIB 10 mM; glutamine 1 mM
Method: To delete the SNAT2 (SLC38A2) gene in modified HCC1806 cells (clone C10 nullizygous for ASCT2 ([Broer et al., 2019])), the GeneArt CRISPR Nuclease Vector with OFP Reporter Kit (Invitrogen; A21174) was employed and complementary 19–20 bp long single-stranded oligonucleotides with overhangs were designed to produce a guide RNA (gRNA) for the Cas9 nuclease that would target exon 7 of the SNAT2 gene. Colonies were analysed by sequencing using the U6 primer included in the GeneArt CRISPR Nuclease Vector with OFP Reporter kit. Plasmids that contained the correct CRISPR nuclease construct were then used to transfect HCC1806 cells with Lipofectamine 2000 (Invitrogen). Prior to transfection, medium was replaced with 2 ml of fresh DMEM/F-12 (supplemented with 10% heat-inactivated FBS and 2 mM glutamine). Plasmid DNA (4 µg) and 10 µL of Lipofectamine 2000 were incubated separately for 5 min at room temperature in 500 µl of Opti-MEM (Invitrogen) before being combined and incubated for a further 30 min at room temperature. The DNA-Lipofectamine complex was then added to the cells in a dropwise manner and allowed to be absorbed over 6 h at 37°C, after which the medium was renewed with fresh DMEM/F-12. Cells were checked for red fluorescence using an EVOS FL cell imaging system (Thermo Fisher Scientific) 48–72 h post transfection. Subsequently, cells were detached using 0.25% Trypsin EDTA. After harvesting and washing thrice with PBS (pH 7.4), cells were resuspended in PBS (pH 7.4) supplemented with 5 mM glucose and 1% dialysed and heat inactivated FBS and passed through a 100 μm cell strainer. The cell filtrate was then pelleted once more and resuspended in the same buffer. Cells were sorted using an ARIA II FACS machine and individually dispensed into the wells of a 96-well plate. Nullizygous clones were identified using a series of assays including the FLIPR membrane potential assay, western blotting and sequencing.
The FLIPR Membrane Potential Blue Explorer Kit (Molecular Devices) was used to characterise inhibitors and to optimise a high-throughput compound screen. Cells were seeded at approximately 60,000 cells/well on a 96-well plate and allowed to attach and grow overnight in a cell incubator. The next day, the cells were washed once with mHBSS and incubated in a starvation medium (composed of mHBSS with 1% dialysed heat-inactivated FBS, 23 mM NaHCO3, 10 U/ml penicillin and 10 μg/ml streptomycin) for 24 h. Cells were then washed once with mHBSS and incubated with 50 µl of the mHBSS-resuspended FMP assay dye and 50 µl of mHBSS (with or without inhibitors) and incubated at room temperature for 30 min. The plate was then placed in an EnSpire Multimode plate reader (PerkinElmer) and four sequential measurements of fluorescence were recorded as a baseline reference. Immediately after the baseline measurements were taken, 25 µl of 5 mM glutamine dissolved in mHBSS was injected into each well and the plate was shaken orbitally for 5 s before a series of consecutive fluorescence measurements were taken. The excitation wavelength was set to 530 nm and the emission was detected at 565 nm. The Δ fluorescent signal reported in the figures was taken 30 s after substrate addition. After the assay was complete, the liquid content of the plate was carefully removed, and the cell monolayer inspected to ensure it remained intact throughout the course of the assay.

Structure (SMILES): NC(=O)CC[C@H](N)C(=O)O [Glutamine, glutamine]
- FMP fluorescence reading ([1]; HCC1806, second column group headed UNINDUCED (c11-c19), t=-30 s, glutamine introduced at t=0, replicates 1-3): 48604 and 53579 and 57451
- FMP fluorescence reading ([1]; HCC1806 UNINDUCED (c1-c9), t=0 s): 80152 and 93008 and 95175
- FMP fluorescence reading ([1]; HCC1806 UNINDUCED (c1-c9), t=15 s): 81192 and 94874 and 97430
- FMP fluorescence reading ([1]; HCC1806 UNINDUCED (c1-c9), t=30 s): 81634 and 95549 and 97622
- FMP fluorescence reading ([1]; HCC1806 UNINDUCED (c1-c9), t=45 s): 82112 and 96387 and 97827
- FMP fluorescence reading ([1]; HCC1806 UNINDUCED (c1-c9), t=60 s): 82774 and 96256 and 98257
- FMP fluorescence reading ([1]; HCC1806 UNINDUCED (c1-c9), t=75 s): 83212 and 96832 and 98303
- FMP fluorescence reading ([1]; HCC1806 UNINDUCED (c1-c9), t=90 s): 83103 and 97466 and 98281
- FMP fluorescence reading ([1]; HCC1806 UNINDUCED (c1-c9), t=105 s): 83167 and 97358 and 97714
- FMP fluorescence reading ([1]; HCC1806 UNINDUCED (c1-c9), t=120 s): 83214 and 97405 and 97828
- FMP fluorescence reading ([1]; HCC1806 UNINDUCED (c1-c9), t=135 s): 83426 and 97359 and 98137
- FMP fluorescence reading ([1]; HCC1806 UNINDUCED (c1-c9), t=-15 s): 80647 and 93663 and 95145
- FMP fluorescence reading ([1]; HCC1806 UNINDUCED (c1-c9), t=-30 s, glutamine introduced at t=0, replicates 1-3): 79899 and 92924 and 94884
- FMP fluorescence reading ([1]; second group headed UNINDUCED (c11-c19), t=0 s): 48277 and 53613 and 57279
- FMP fluorescence reading ([1]; second group headed UNINDUCED (c11-c19), t=15 s): 87410 and 95992 and 106048
- FMP fluorescence reading ([1]; second group headed UNINDUCED (c11-c19), t=30 s): 92514 and 100953 and 110310
- FMP fluorescence reading ([1]; second group headed UNINDUCED (c11-c19), t=45 s): 96611 and 104700 and 113605
- FMP fluorescence reading ([1]; second group headed UNINDUCED (c11-c19), t=60 s): 98488 and 108054 and 116646
- FMP fluorescence reading ([1]; second group headed UNINDUCED (c11-c19), t=75 s): 100460 and 110105 and 118023
- FMP fluorescence reading ([1]; second group headed UNINDUCED (c11-c19), t=90 s): 101322 and 111642 and 119920
- FMP fluorescence reading ([1]; second group headed UNINDUCED (c11-c19), t=105 s): 102745 and 112818 and 120694
- FMP fluorescence reading ([1]; second group headed UNINDUCED (c11-c19), t=120 s): 102428 and 112661 and 120909
- FMP fluorescence reading ([1]; second group headed UNINDUCED (c11-c19), t=135 s): 102525 and 112308 and 120142
- FMP fluorescence reading ([1]; second group headed UNINDUCED (c11-c19), t=-15 s): 48090 and 53580 and 57674
- FMP signal in D126 cells (ASCT2ko, SNAT2ko) compared to C10 [2]: 42%
